Assays:
[1] = system: 3T3-L1 cells as preadipocytes; test: Inhibition of adipocyte differentiation, Oil-Red O staining; assay type: cell-based, Mouse; details: treated every other day from day 0 of differentiation, 14 days culture, different concentrations
Protocol: Mouse adipocyte line (3T3-L1) was used to evaluate effects of various piperine-based compounds on adipocyte differentiation and growth. 3T3-L1 cells as preadipocytes were dispensed on a 12-well plate, and cultured in a 5% CO2 incubator using DMEM medium supplemented with 1% penicillin-streptomycin, 1% non-essential amino acids, and 10% FBS. The cultured 3T3-L1 cells were made into differentiated adipocytes by being cultured for […] in a medium containing 0.5 mM […], 1 μM dexamethasone (MDI), and 1 μg/mL insulin, and then differentiated into mature adipocytes by being further cultured in a medium 1 μg/mL insulin. After that, they were further cultured for 10 days while changing the DMEM culture liquid every other day to obtain fully differentiated adipocytes.
The culture liquid was treated with 13 new compounds with different concentrations every other day from day 0 when DMI was added to the 3T3-L1 cells for differentiation. Derivative compounds were dissolved in DMSO before the use thereof, and a negative control group added with only DMSO was included in the experiment.
After the culturing for a total of 14 days, the culture liquids were removed when the cells were fully differentiated, and fat spheres contained in the differentiated adipocytes were stained. For this, the cells were washed 2 times with phosphate buffered saline (PBS), immobilized in 10% buffered neutral formalin for 1 hour, washed again once with PBS, stained for 1 hour by adding 1 mL of Oil-Red-O, which specifically stains fats red, to the 12-well plate, and then washed 2 times with distilled water. In order to measure the level of triglyceride contained in the differentiated 3T3-L1 cells, the stained cells were dissolved in 1 mL of iso-butanol and the OD value was measured at 600 nm.

[2] = system: C57BL/6J mice; test: Oral glucose tolerance test in mice fed test diets; assay type: in vivo; details: 8 weeks of diet
Protocol: After 8 weeks of experimental diet, the oral glucose tolerance test was performed on all groups. After 6 hours of fasting, the mice were orally administered with glucose (2 g glucose/10 ml of distilled water/kg body weight). Before the oral administration of glucose, at 15, 30, 60, and 120 min after the administration of glucose, blood samples were taken from the tail cut (by removing the distal 1 cm of the tail) and blood glucose concentrations were measured using a blood glucose monitoring device.

[3] = system: C57BL/6J mice; test: Body weight and visceral fat weight of mice fed high-fat test diets (LJ-2498 study); assay type: in vivo; details: 0.05% in high-fat diet, 10 weeks
Protocol: The obesity-inducing diet used in this example was high-fat diet (HFD: 40% fat calorie, 17 g lard+3% corn oil/100 g diet). LJ-2498 chemical (JL-2498) or piperine (Pin)-containing diet had the same composition as HFD, except that LJ-2498 chemical was included at 0.05%. As control drugs, metformin (Metf) as a diabetic treatment in a level of 0.1% and sibutramine as an obesity treatment in a level of 0.1% were added to a high-fat diet. A normal diet group (Chow) was fed with commercial rodent feedstuff.
(§1) 5-week-old male C57BL/6J mice (Orient, Korea) were accustomed to the laboratory environment for 1 week while feeding solid feed. Then, they were randomly divided into normal diet group, high-fat diet control group and test group of 3 types and control drug group of 2 types. They were bred for a total of 10 weeks (n=8/group). The diet was given between 10 and 11 a.m. every day together with water. Diet intake was measured every day and body weight was measured every week. In order to avoid transient body weight increase after feed intake, body weight was measured 2 hours after removing the feed. After fasting the test animal for at least 12 hours and anesthetizing with diethyl ether, blood, liver and visceral fat (epididymal fat, perirenal fat, mesenteric fat and retroperitoneal fat) were taken and weighed after washing with 0.1 M PBS (pH 7.4). Blood taken from the abdominal aorta was centrifuged at 1000×g for 15 minutes to separate the serum.

[4] = system: C57BL/6J mice; test: Liver weight and lipid level in liver tissues of mice fed test diets; assay type: in vivo; details: 0.05% in high-fat diet, 10 weeks
Protocol: as §1
Lipids were extracted from the liver tissue according to Folch et al.'s method Folch J et al., J Biol. Chem. 226: 497-509 (1957)). After adding 1 mL of distilled water to 0.25 g of liver tissue, the liver tissue was homogenized using a Polytron homogenizer (IKA-Werke GmbH & Co., Ultra-Turrax, Staufen, Germany). After adding 5 mL of chloroform:methanol solution (2:1, v/v) to the homogenate and mixing well, the mixture was centrifuged at 1000×g for 10 minutes. After adding 2 mL of chloroform:methanol solution (2:1, v/v) again to the supernatant, the same procedure was repeated to completely separate the lipid components of the liver. After adding 3 mL of chloroform:methanl:0.05% CaCl2 (3:48:47, v/v/v) solution to the remaining pellets and mixing well for 1 minute, followed by centrifugation at 1000×g for 10 minutes, the resulting pellets were completely dried with nitrogen gas. The dried lipids were dissolved in 1 mL of methanol and then analyzed.
The same kit (Bio Clinical System) as that used for the plasma analysis was used to measure the triglyceride and cholesterol levels of the liver tissue.

[5] = system: C57BL/6J mice; test: Biochemical analysis of blood (plasma lipids, ALT, AST) of mice fed test diets; assay type: in vivo; details: 0.05% in high-fat diet, 10 weeks
Protocol: as §1
After 10 weeks of breeding, total cholesterol, triglyceride and glucose levels in the plasma and lipid levels in the liver tissue were measured as follows. Total cholesterol, triglyceride, free fatty acid and glucose levels in the plasma were measured twice for each using a commercially available kit (Bio Clinical System). The activity of ALT (alanine aminotransferase) and AST (aspartate aminotransferase) used as liver function indicator were measured twice for each using a commercially available kit (Bio Clinical System, Korea).

[6] = system: C57BL/6J mice; test: Body and visceral fat-pad weights of mice fed high-fat test diets (LJ-2529 study); assay type: in vivo; details: 14 weeks; for decrease of daily food intake: supplemented high-fat diet
Protocol: The obesity-inducing control diet used in the test was high-fat diet (HFD: 40% fat calorie, 17 g lard+3% corn oil/100 g diet). Diets supplemented with LJ-2529 compound or piperine had the same composition as HFD, except that LJ-2529 was included at 0.05%.
5-week-old male C57BL/6J mice (Orient, Korea) were accustomed to the laboratory environment for 1 week while feeding solid feed. […] The diet was given between 10 and 11 a.m. every day together with water. Food intake was measured every day and body weight was measured once a week. In order to avoid transient body weight increase after feed intake, body weight was measured 2 hours after removing the feed. After fasting the test animal for at least 12 hours and anesthetizing with diethyl ether, blood, liver and visceral fat (epididymal fat, perirenal fat, mesenteric fat and retroperitoneal fat) were taken and weighed after washing with 0.1M PBS (pH 7.4). Blood taken from the abdominal aorta was centrifuged at 1000×g for 15 minutes for the separation of plasma.

CC(=O)OC/C=C/c1ccc2c(c1)OCO2 [LJ-2196, (E)-3-(benzo[d][1,3]dioxo-5-yl)allyl acetate]
differentiation of the preadipocytes 3T3L1 [1]: reduced the differentiation of the preadipocytes 3T3L1 in a concentration-dependent manner

C(=N\c1ccccc1)/c1ccc2c(c1)OCO2 [LJ-2477, (E)-N-(benzo[d][1,3]dioxol-5-ylmethylene)aniline]
differentiation of the preadipocytes 3T3L1 [1]: reduced the differentiation of the preadipocytes 3T3L1 in a concentration-dependent manner

O=C(/C=C/C=C/c1ccc2c(c1)OCO2)N1CCCC1 [LJ-2487, (2E,4E)-5-(benzo[d][1,3]dioxol-5-yl)-1-(pyrrolidin-1-yl)penta-2,4-dien-1-one]
differentiation of the preadipocytes 3T3L1 [1]: reduced the differentiation of the preadipocytes 3T3L1 in a concentration-dependent manner

COc1ccc(OC)c(/C=C/C=C/C(=O)N2CCCCC2)c1 [LJ-2488, (2E,4E)-5-(2,5-dimethoxy-phenyl)-1-(piperidin-1-yl) penta-2,4-dien-1-one]
differentiation of the preadipocytes 3T3L1 [1]: reduced the differentiation of the preadipocytes 3T3L1 in a concentration-dependent manner

COc1cccc(/C=C/C=C/C(=O)N2CCCCC2)c1OC [LJ-2489, (2E,4E)-5-(2,3-dimethoxy-phenyl)-1-(piperidin-1-yl) penta-2,4-dien-1-one]
differentiation of the preadipocytes 3T3L1 [1]: reduced the differentiation of the preadipocytes 3T3L1 in a concentration-dependent manner | reduction of area under the curve (ACU) for blood glucose concentrations as compared with HFD ([2]; 2 g glucose/kg oral): 17%

COc1ccc(/C=C/C=C/C(=O)N2CCCCC2)c(OC)c1 [LJ-2490, (2E,4E)-5-(2,4-dimethoxy-phenyl)-1-(piperidin-1-yl) penta-2,4-dien-1-one]
differentiation of the preadipocytes 3T3L1 [1]: reduced the differentiation of the preadipocytes 3T3L1 in a concentration-dependent manner

COc1ccc(/C=C/C=C/C(=O)N2CCCCC2)cc1OC [LJ-2491, (2E,4E)-5-(3,4-dimethoxy-phenyl)-1-(piperidin-1-yl) penta-2,4-dien-1-one]
differentiation of the preadipocytes 3T3L1 [1]: reduced the differentiation of the preadipocytes 3T3L1 in a concentration-dependent manner

COc1cc(/C=C/C=C/C(=O)N2CCCCC2)cc(OC)c1 [LJ-2492, (2E,4E)-5-(3,5-dimethoxy-phenyl)-1-(piperidin-1-yl) penta-2,4-dien-1-one]
differentiation of the preadipocytes 3T3L1 [1]: reduced the differentiation of the preadipocytes 3T3L1 in a concentration-dependent manner

Cc1ccc(C)c(/C=C/C=C/C(=O)N2CCCCC2)c1 [LJ-2497, Trans-(2E,4E)-5-(2,5-dimethylphenyl)-1-(piperidin-1-yl) penta-2,4-dien-1-one]
differentiation of the preadipocytes 3T3L1 [1]: reduced the differentiation of the preadipocytes 3T3L1 in a concentration-dependent manner

Cc1ccc(C)c(/C=C/C=C\C(=O)N2CCCCC2)c1 [LJ-2498, Cis-(2E,4E)-5-(2,5-dimethyl-phenyl)-1-(piperidin-1-yl) penta-2,4-dien-1-one]
differentiation of the preadipocytes 3T3L1 [1]: reduced the differentiation of the preadipocytes 3T3L1 in a concentration-dependent manner | epididymal fat weight per body weight as compared to HFD [3]: significantly lower | lower accumulated body weight gain as compared to HFD [3]: 23% | lower total visceral fat weight compared to HFD [3]: 28% | mesenteric fat weight per body weight as compared to HFD [3]: significantly lower | perirenal fat weight per body weight as compared to HFD [3]: significantly lower | retroperitoneal fat weight per body weight as compared to HFD [3]: significantly lower | visceral fat weight as compared to HFD group [3]: significantly lower | decrease of liver weight compared to HFD [4]: 23% | decreased level of cholesterol in liver tissue as compared to HFD [4]: 41% | decreased level of triglyceride in liver tissue as compared to HFD [4]: 29% | liver tissue appearance as compared to HFD ([4]; images): darker and smaller liver tissue | insulin resistance improving effect versus control drugs metformin and sibutramine [2]: more excellent than those of control drugs | blood glucose concentration after oral glucose as compared with HFD ([2]; 2 g glucose/kg, 15, 30, 60, 120 min): further reduced over all the time zones | reduction of fasting blood glucose as compared with HFD ([2]; 6 hours fasting): 20% | decreased plasma activity of ALT as compared to HFD [5]: 27% | decreased plasma activity of AST as compared to HFD [5]: 15% | lower plasma level of free fatty acid as compared to HFD [5]: 25% | lower plasma level of total cholesterol as compared to HFD [5]: 20% | lower plasma level of triglyceride as compared to HFD [5]: 21%

O=c1[nH]c2ccc(/N=C/c3cc4c(cc3Br)OCO4)cc2[nH]1 [LJ-2527]
differentiation of the preadipocytes 3T3L1 [1]: reduced the differentiation of the preadipocytes 3T3L1 in a concentration-dependent manner

O=c1[nH]c2ccc(/N=C/c3c(Br)ccc4c3OCO4)cc2[nH]1 [LJ-2529]
differentiation of the preadipocytes 3T3L1 [1]: reduced the differentiation of the preadipocytes 3T3L1 in a concentration-dependent manner | decrease of FER (feed efficiency ratio) compared with HFD ([6]; 0.05% in high-fat diet): 60% | decrease of body weight gain as compared to HFD ([6]; 0.05% in high-fat diet): 60% | epididymal fat-pad weight as compared to HFD ([6]; 0.05% in high-fat diet): significantly reduced | mesenteric fat-pad weight as compared to HFD ([6]; 0.05% in high-fat diet): significantly reduced | perirenal fat-pad weight as compared to HFD ([6]; 0.05% in high-fat diet): significantly reduced | retroperitoneal fat-pad weight as compared to HFD ([6]; 0.05% in high-fat diet): significantly reduced | reduction of total visceral fat weight versus HFD ([6]; 0.05% in high-fat diet, P<0.001): 15% | decrease of daily food intake [6]: 24%

S=c1[nH]c2ccc(/N=C/c3c(Br)ccc4c3OCO4)cc2[nH]1 [SKKU-S-02]
differentiation of the preadipocytes 3T3L1 [1]: reduced the differentiation of the preadipocytes 3T3L1 in a concentration-dependent manner

O=C(/C=C/C=C/c1ccc2c(c1)OCO2)N1CCCCC1 [piperine, Piperine]
body weight gain change (signed) versus HFD ([6]; piperine-supplemented high-fat diet): −48% | decrease of daily food intake [6]: 27%
